According to ChEMBL document CHEMBL1144160, “Discovery and optimization of (R)-prolinol-derived agonists of the Growth Hormone Secretagogue receptor (GHSR)” (Bioorg Med Chem Lett, 2008):

Columns and labels:
[1] = target: T1, Growth hormone secretagogue receptor type 1 (Homo sapiens, UniProt Q92847); experiment: Agonist activity at GHSR; type: functional
[2] = target: T1, Growth hormone secretagogue receptor type 1; experiment: Agonist activity at GHSR relative to full agonist; type: functional
[3] = target: T1, Growth hormone secretagogue receptor type 1; experiment: Binding affinity to GHSR

T1 sequence (Q92847 whole entry): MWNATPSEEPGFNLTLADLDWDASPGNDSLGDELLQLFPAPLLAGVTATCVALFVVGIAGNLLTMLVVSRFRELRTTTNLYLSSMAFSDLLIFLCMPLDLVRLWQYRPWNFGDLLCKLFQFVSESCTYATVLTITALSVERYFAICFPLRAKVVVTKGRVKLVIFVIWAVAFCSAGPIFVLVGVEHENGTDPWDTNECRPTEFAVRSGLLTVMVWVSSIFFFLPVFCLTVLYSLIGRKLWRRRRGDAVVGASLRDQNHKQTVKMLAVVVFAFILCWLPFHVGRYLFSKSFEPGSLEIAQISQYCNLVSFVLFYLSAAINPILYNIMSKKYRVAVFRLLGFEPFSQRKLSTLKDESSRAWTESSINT

Q: How did the EC50 [1] turn out when CC(Oc1ccccc1Cl)C(=O)N(C[C@H]1CCCN1)c1ccc(Cl)cc1 (stereo partly specified) was run?
A: The EC50 was no less than 10000 nM.

Q: Which EC50 [1] does the source give for CC(Oc1cccc(Cl)c1)C(=O)N(Cc1ccccc1Cl)C[C@H]1CCCN1 (stereo partly specified) here?
A: Its EC50 is 40 nM.

Q: And the Activity [2]?
A: The Activity was 80%.

Q: What does the source list for CC(=O)Nc1cccc(N(C[C@H]2CCCN2)C(=O)C(C)Oc2ccccc2)c1 (stereo partly specified)?
A: EC50 [1]: 1000 nM; Activity [2]: 80%

Q: What does the source list for CC(Oc1cccc(Cl)c1)C(=O)N(Cc1ccc(Cl)cc1)C[C@H]1CCCN1 (stereo partly specified)?
A: EC50 [1]: 30 nM; Activity [2]: 90%

Q: For CC(Oc1ccccc1)C(=O)N(Cc1ccccc1Cl)C[C@H]1CCCN1 (stereo partly specified), which EC50 [1] is on record?
A: The EC50 was 150 nM.

Q: And the Activity [2]?
A: Its Activity is 100%.

Q: For CC(=O)Nc1cccc(N(C[C@H]2CCCN2)C(=O)C(C)Oc2ccccc2Cl)c1 (stereo partly specified), which EC50 [1] is on record?
A: Its EC50 is 200 nM.

Q: What about the Activity [2] of the same compound?
A: The Activity was 70%.

Q: Which EC50 [1] does the source give for CC(Oc1cccc(Cl)c1)C(=O)N(C[C@H]1CCCN1)c1cccc(Cl)c1 (stereo partly specified) here?
A: Its EC50 is 40 nM.

Q: And the Activity [2]?
A: The Activity was 110%.

Q: How did the EC50 [1] turn out when CC(Oc1ccccc1)C(=O)N(C[C@H]1CCCN1)c1ccccc1Cl (stereo partly specified) was run?
A: Its EC50 is 1260 nM.

Q: And the Activity [2]?
A: Its Activity is 80%.

Q: How did the EC50 [1] turn out when Cc1cccc(CN(C[C@H]2CCCN2)C(=O)C(C)Oc2ccccc2)c1 (stereo partly specified) was run?
A: Its EC50 is 80 nM.

Q: What about the Activity [2] of the same compound?
A: The Activity was 90%.

Q: CC(Oc1ccccc1Cl)C(=O)N(Cc1cccc(Cl)c1)C[C@H]1CCCN1 (stereo partly specified) was tested. Which EC50 [1] did it give?
A: The EC50 was 10 nM.

Q: And the Activity [2]?
A: Its Activity is 90%.

Q: Cc1cccc(CN(C[C@H]2CCCN2)C(=O)C(C)Oc2cccc(Cl)c2)c1 (stereo partly specified) was tested. Which EC50 [1] did it give?
A: The EC50 was 120 nM.

Q: What about the Activity [2] of the same compound?
A: The Activity was 20%.

Q: With C[C@@H](Oc1cccc(Cl)c1)C(=O)N(Cc1ccccc1)C[C@H]1CCCN1 as the compound, how does the EC50 [1] read?
A: Its EC50 is 1500 nM.

Q: And the Activity [2]?
A: Its Activity is 100%.

Q: And the Ki [3]?
A: The Ki was no less than 10000 nM.

Q: Which EC50 [1] does the source give for CCC(Oc1ccccc1)C(=O)N(C[C@H]1CCCN1)c1cccc(-c2ccccc2)c1OC (stereo partly specified) here?
A: The EC50 was 2000 nM.

Q: Which results are given for CC(Oc1cccc(Cl)c1)C(=O)N(C[C@H]1CCCN1)c1ccccc1Cl (stereo partly specified)?
A: EC50 [1]: 780 nM; Activity [2]: 70%

Q: What does the source list for CC(Oc1ccccc1Cl)C(=O)N(Cc1ccc(Cl)cc1)C[C@H]1CCCN1 (stereo partly specified)?
A: EC50 [1]: 60 nM; Activity [2]: 80%

Q: For COc1cccc(N(C[C@H]2CCCN2)C(=O)C(C)Oc2ccccc2)c1 (stereo partly specified), which EC50 [1] is on record?
A: Its EC50 is 4000 nM.

Q: With CC(=O)Nc1ccc(N(C[C@H]2CCCN2)C(=O)C(C)Oc2ccccc2)cc1 (stereo partly specified) as the compound, how does the EC50 [1] read?
A: Its EC50 is 330 nM.

Q: What does the source list for CC(=O)Nc1ccc(N(C[C@H]2CCCN2)C(=O)[C@@H](C)Oc2cccc(Cl)c2)cc1?
A: EC50 [1]: 1200 nM; Activity [2]: 100%; Ki [3]: ≥ 10000 nM

Q: Which EC50 [1] does the source give for CC(Oc1ccccc1)C(=O)N(C[C@H]1CCCN1)c1ccc(CC#N)cc1 (stereo partly specified) here?
A: The EC50 was 9000 nM.

Q: For CC(Oc1ccccc1Cl)C(=O)N(C[C@H]1CCCN1)c1cccc(Cl)c1 (stereo partly specified), which EC50 [1] is on record?
A: Its EC50 is 250 nM.

Q: And the Activity [2]?
A: The Activity was 60%.

Q: Which EC50 [1] does the source give for CC(Oc1ccccc1Cl)C(=O)N(C[C@H]1CCCN1)c1ccccc1 (stereo partly specified) here?
A: The EC50 was no less than 10000 nM.

Q: Which EC50 [1] does the source give for CC(Oc1ccccc1)C(=O)N(C[C@H]1CCCN1)c1ccccc1 (stereo partly specified) here?
A: Its EC50 is 440 nM.

Q: How did the EC50 [1] turn out when COc1c(-c2ccccc2)cccc1N(C[C@H]1CCCN1)C(=O)COc1ccccc1 was run?
A: The EC50 was 5000 nM.

Q: CCC(Oc1ccccc1)C(=O)N(Cc1ccccc1)C[C@H]1CCCN1 (stereo partly specified) was tested. Which EC50 [1] did it give?
A: The EC50 was 900 nM.

Q: With Cc1ccccc1CN(C[C@H]1CCCN1)C(=O)C(C)Oc1ccccc1 (stereo partly specified) as the compound, how does the EC50 [1] read?
A: Its EC50 is 40 nM.

Q: What about the Activity [2] of the same compound?
A: The Activity was 110%.

Q: Which results are given for Cc1ccccc1CN(C[C@H]1CCCN1)C(=O)[C@@H](C)Oc1cccc(Cl)c1?
A: EC50 [1]: 180 nM; Activity [2]: 90%; Ki [3]: 2200 nM

Q: For CC(Oc1ccccc1)C(=O)N(Cc1ccc(Cl)cc1)C[C@H]1CCCN1 (stereo partly specified), which EC50 [1] is on record?
A: Its EC50 is 220 nM.

Q: What about the Activity [2] of the same compound?
A: Its Activity is 80%.

Q: How did the EC50 [1] turn out when CC(=O)Nc1ccc(N(C[C@H]2CCCN2)C(=O)C(C)Oc2ccccc2Cl)cc1 (stereo partly specified) was run?
A: Its EC50 is 50 nM.

Q: What about the Activity [2] of the same compound?
A: The Activity was 90%.

Q: Which results are given for CC(Oc1cccc(Cl)c1)C(=O)N(Cc1cccc(Cl)c1)C[C@H]1CCCN1 (stereo partly specified)?
A: EC50 [1]: 20 nM; Activity [2]: 70%

Q: How did the EC50 [1] turn out when CC(Oc1cccc(Cl)c1)C(=O)N(C[C@H]1CCCN1)c1ccc(Cl)cc1 (stereo partly specified) was run?
A: The EC50 was 120 nM.

Q: What about the Activity [2] of the same compound?
A: Its Activity is 90%.

Q: With COc1cccc(N(C[C@H]2CCCN2)C(=O)COc2ccccc2)c1 as the compound, how does the EC50 [1] read?
A: The EC50 was greater than 10000 nM.

Q: With CC(Oc1ccccc1)C(=O)N(C[C@H]1CCCN1)c1ccc(Cl)cc1 (stereo partly specified) as the compound, how does the EC50 [1] read?
A: The EC50 was 600 nM.

Q: And the Activity [2]?
A: The Activity was 80%.

Q: Which EC50 [1] does the source give for Cc1ccccc1CN(C[C@H]1CCCN1)C(=O)C(C)Oc1ccccc1Cl (stereo partly specified) here?
A: The EC50 was 140 nM.

Q: And the Activity [2]?
A: Its Activity is 90%.

Q: Which EC50 [1] does the source give for CC(=O)Nc1ccc(N(C[C@H]2CCCN2)C(=O)C(C)Oc2cccc(Cl)c2)cc1 (stereo partly specified) here?
A: The EC50 was 30 nM.

Q: And the Activity [2]?
A: The Activity was 90%.

Q: What about the Ki [3] of the same compound?
A: The Ki was 260 nM.

Q: Which results are given for CC(=O)Nc1cccc(N(C[C@H]2CCCN2)C(=O)C(C)Oc2cccc(Cl)c2)c1 (stereo partly specified)?
A: EC50 [1]: 140 nM; Activity [2]: 60%

Q: How did the EC50 [1] turn out when CCC(Oc1ccccc1)C(=O)N(C[C@H]1CCCN1)c1cccc(SC)c1 (stereo partly specified) was run?
A: Its EC50 is greater than 10000 nM.

Q: For CC(Oc1ccccc1Cl)C(=O)N(C[C@H]1CCCN1)c1ccccc1Cl (stereo partly specified), which EC50 [1] is on record?
A: Its EC50 is no less than 10000 nM.

Q: How did the EC50 [1] turn out when CCC(Oc1ccccc1)C(=O)N(C[C@H]1CCCN1)c1ccc(CC#N)cc1 (stereo partly specified) was run?
A: Its EC50 is 14000 nM.

Q: With CC(=O)Nc1ccc(N(C[C@H]2CCCN2)C(=O)[C@H](C)Oc2cccc(Cl)c2)cc1 as the compound, how does the EC50 [1] read?
A: Its EC50 is 20 nM.

Q: What about the Activity [2] of the same compound?
A: The Activity was 100%.

Q: And the Ki [3]?
A: Its Ki is 250 nM.

Q: Which EC50 [1] does the source give for CC(Oc1ccccc1Cl)C(=O)N(Cc1ccccc1)C[C@H]1CCCN1 (stereo partly specified) here?
A: The EC50 was 20 nM.

Q: What about the Activity [2] of the same compound?
A: Its Activity is 60%.

Q: For CC(Oc1ccccc1Cl)C(=O)N(Cc1ccccc1Cl)C[C@H]1CCCN1 (stereo partly specified), which EC50 [1] is on record?
A: Its EC50 is 260 nM.

Q: And the Activity [2]?
A: The Activity was 60%.

Q: For O=C(COc1ccccc1)N(C[C@H]1CCCN1)c1ccccc1, which EC50 [1] is on record?
A: The EC50 was greater than 10000 nM.

Q: How did the EC50 [1] turn out when C[C@H](Oc1cccc(Cl)c1)C(=O)N(Cc1ccccc1)C[C@H]1CCCN1 was run?
A: Its EC50 is 4 nM.

Q: And the Activity [2]?
A: Its Activity is 90%.

Q: And the Ki [3]?
A: The Ki was 30 nM.

Q: Cc1ccccc1CN(C[C@H]1CCCN1)C(=O)[C@H](C)Oc1cccc(Cl)c1 was tested. Which EC50 [1] did it give?
A: Its EC50 is 2 nM.

Q: And the Activity [2]?
A: The Activity was 90%.

Q: What about the Ki [3] of the same compound?
A: Its Ki is 30 nM.

Q: With CCC(Oc1ccccc1)C(=O)N(C[C@H]1CCCN1)c1ccc(NC(C)=O)cc1 (stereo partly specified) as the compound, how does the EC50 [1] read?
A: The EC50 was 4000 nM.

Q: Which EC50 [1] does the source give for CC(Oc1cccc(Cl)c1)C(=O)N(Cc1ccccc1)C[C@H]1CCCN1 (stereo partly specified) here?
A: Its EC50 is 7 nM.

Q: What about the Activity [2] of the same compound?
A: Its Activity is 80%.

Q: And the Ki [3]?
A: The Ki was 300 nM.

Q: CC(=O)Nc1ccc(N(C[C@H]2CCCN2)C(=O)COc2ccccc2)cc1 was tested. Which EC50 [1] did it give?
A: Its EC50 is 2000 nM.

Q: How did the EC50 [1] turn out when Cc1cccc(CN(C[C@H]2CCCN2)C(=O)C(C)Oc2ccccc2Cl)c1 (stereo partly specified) was run?
A: Its EC50 is 90 nM.

Q: What about the Activity [2] of the same compound?
A: The Activity was 70%.

Q: CC(Oc1ccccc1)C(=O)N(Cc1ccccc1)C[C@H]1CCCN1 (stereo partly specified) was tested. Which EC50 [1] did it give?
A: The EC50 was 90 nM.

Q: With O=C(COc1ccccc1)N(Cc1ccccc1)C[C@H]1CCCN1 as the compound, how does the EC50 [1] read?
A: The EC50 was greater than 10000 nM.

Q: Which results are given for CC(Oc1ccccc1)C(=O)N(C[C@H]1CCCN1)c1cccc(Cl)c1 (stereo partly specified)?
A: EC50 [1]: 90 nM; Activity [2]: 110%

Q: With CCC(Oc1ccccc1)C(=O)N(C[C@H]1CCCN1)c1cccc(OC)c1 (stereo partly specified) as the compound, how does the EC50 [1] read?
A: The EC50 was greater than 10000 nM.

Q: For CC(Oc1cccc(Cl)c1)C(=O)N(C[C@H]1CCCN1)c1ccccc1 (stereo partly specified), which EC50 [1] is on record?
A: The EC50 was 120 nM.

Q: And the Activity [2]?
A: Its Activity is 60%.

Q: Which results are given for CC(Oc1ccccc1)C(=O)N(Cc1cccc(Cl)c1)C[C@H]1CCCN1 (stereo partly specified)?
A: EC50 [1]: 50 nM; Activity [2]: 80%

Q: For CSc1cccc(N(C[C@H]2CCCN2)C(=O)C(C)Oc2ccccc2)c1 (stereo partly specified), which EC50 [1] is on record?
A: Its EC50 is 2000 nM.

Q: How did the EC50 [1] turn out when Cc1ccccc1CN(C[C@H]1CCCN1)C(=O)C(C)Oc1cccc(Cl)c1 (stereo partly specified) was run?
A: Its EC50 is 3 nM.

Q: What about the Activity [2] of the same compound?
A: Its Activity is 100%.

Q: And the Ki [3]?
A: The Ki was 100 nM.
